Measured values: BindingDB's records for patent US11827644 (Suzhou Genhouse Pharmaceutical, 2023)

Target: T1, Tyrosine-protein phosphatase non-receptor type 11 (Homo sapiens, UniProt Q06124)
T1 sequence (Q06124 whole entry): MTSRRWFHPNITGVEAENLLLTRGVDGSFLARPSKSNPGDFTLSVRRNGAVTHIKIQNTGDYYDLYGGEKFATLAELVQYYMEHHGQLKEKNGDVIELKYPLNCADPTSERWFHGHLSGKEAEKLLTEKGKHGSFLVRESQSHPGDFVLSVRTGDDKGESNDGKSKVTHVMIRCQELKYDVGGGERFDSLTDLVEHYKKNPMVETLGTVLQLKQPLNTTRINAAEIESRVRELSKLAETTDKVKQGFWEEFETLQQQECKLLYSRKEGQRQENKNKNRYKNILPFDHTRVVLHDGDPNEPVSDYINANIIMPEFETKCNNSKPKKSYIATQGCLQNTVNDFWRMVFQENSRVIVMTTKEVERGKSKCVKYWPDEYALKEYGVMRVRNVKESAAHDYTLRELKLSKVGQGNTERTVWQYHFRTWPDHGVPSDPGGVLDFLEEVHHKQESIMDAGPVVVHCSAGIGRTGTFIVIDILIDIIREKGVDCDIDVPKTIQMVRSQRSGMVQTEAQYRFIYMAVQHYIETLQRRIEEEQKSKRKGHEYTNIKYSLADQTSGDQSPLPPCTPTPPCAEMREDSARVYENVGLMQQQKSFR
Assay: SHP2 Allosteric Inhibition Assay
Method: The phosphatase reaction was conducted in 384-well black polystyrene plates (Corning, Cat #3575) with flat bottom, low edge and non-binding surface at room temperature and 25 μl final volume of the following buffer condition: 60 mM HEPES, pH 7.2, 75 mM NaCl, 75 mM KCl, 1 mM EDTA, 0.05% P-20, 5 mM DTT.The following experiments were conducted to monitor the SHP2 inhibition by the compounds (at concentrations of 0.0003-100 μM) in this invention:Wherein, incubate 0.5 nM SHP2 with 0.5 μM peptide IRS1_pY1172 (dPEG8) pY1222 (sequence: H2N-LN (pY) IDLDLV (dPEG8) LST (pY) ASINFQK-amide) (SEQ ID NO: 1) (WO2016/203406A1). After incubation at 25° C. for 30-60 minutes, the alternative substrate DiFMUP (Invitrogen, cat #D6567) was added to the reaction and incubated at 25° C. for 30 minutes. The reaction was then […] by adding 5 μL of a 160 μM bpV (Phen) solution (Enzo Life Sciences cat #ALX-270-204). The fluorescence signal was monitored using a microplate reader (VARIOSKAN LUX, Thermo) with excitation and emission wavelengths of 340 nm and 450 nm, respectively. The inhibitory dose-response curve is analyzed using a standardized IC50 regression curve based on control-based normalization.

Work on `C[C@@H]1OCC2(CCN(c3cnc(Sc4cccc(-c5cscn5)c4Cl)cn3)CC2)[C@@H]1N` [US11827644, Example 33] yielded an IC50 of 2.62 nM.
